Measured values: patent US20030022151A1, “Functional screening” (priority 2001, published 2003)

Key:
[1] = test system: Stable N2a cells expressing PS1 chimeric proteins; test: Zeocin toxicity / cell viability assay (WST-1) in stable N2a cells expressing PS1 chimera; type: cell-based, mouse
Experimental: (§1) Cultured stable N2a cells expressing chimeric PS1 polypeptides were tested for cell viability in the presence of increasing concentrations of zeocin and in the presence and absence of known presenilin inhibitors in multi-well formats (FIG. 11). […] In these assays, cell viability can be assayed by commercially available cell viability ELISA kits.
(§2) Stable N2a cells expressing PS1 chimeric proteins or the parental N2a cell line were plated at a density of 6.25×10^3 cells/well into 96-well tissue culture dishes in a volume of 90 µl/well. Serial dilutions of Zeocin were added (2 mg/ml to 0.0625 mg/ml final concentration) in a volume of 10 µl/well. In some experiments the γ-secretase inhibitor, […] (purchased from Bachem) was added at a final concentration of 1 μM to one set of wells. The cells were incubated from 2 to 3 days at 37° C. Then 10 μl of Cell Proliferation Reagent WST-1 (Roche Biochemical) was added to each well. The plate was shaken for 30 sec. then placed back in the 37° C. incubator. The plate was read at 450 nm after 30 min., 1 h, 2 h and 3h in a Benchmark Plus Absorbance Plate Reader (BioRad).

PS1-Sh ble polypeptide = target: T1, PS1-Sh ble polypeptide (UniProt P17493+P49768); test: Level of PS1-Sh ble polypeptide after inhibitor treatment; type: cell-based; details: FIG. 13 legend
T1 construct: Sh ble protein (Ble, bleomycin/zeocin resistance protein of Streptoalloteichus hindustanus, 124 aa); expressed in transfected cells

PS1 = PS1 (Homo sapiens, UniProt P49768); details: previously reported (Shearman et al., 2000); cited from earlier work
PS2 = PS2 (Homo sapiens, UniProt P49810); details: previously reported (Shearman et al., 2000); cited from earlier work
parental N2a cell line = details: parental cells; lowest zeocin concentration tested (0.2 mg/ml); FIG. 12
Experimental: as §1, §2

parental PS1ΔBle cells = parental PS1ΔBle cells expressing very low levels of PS1ΔBle
Experimental: For the screen, a cell line that expresses very low levels of the PS1ΔBle protein is chosen so that the chimera is largely present as cleaved PS1 NTF and PS1ΔBleCTF. Thus, transgene-derived expression of a putative protein that facilitates increased accumulation of PS1ΔBle confers increased bleomycin (Zeocin) resistance to the target cell. […] After allowing infection/transgene expression for 2-3 days, the infected population of cells are subject to antibiotic selection in 1-2 mg/ml zeocin (5-10 times greater than the concentration normally used for selecting stable clones). At this higher concentration, only cells that accumulate several fold higher levels of PS1ΔBle relative to parental PS1ΔBle cells (that are resistant to 0.2 mg/ml), form colonies. […] If overexpression of a particular cDNA caused increased accumulation of PS1ΔBle, and therefore, an increased resistance to zeocin, in a clone, the cDNA rescued from the clone will confer increased resistance to the parental PS1ΔBle cells during the rescreening.

CC(C)C[C@H](NC(=O)[C@H](Cc1ccccc1)C[C@@H](O)[C@H](Cc1ccccc1)NC(=O)OC(C)(C)C)C(=O)N[C@@H](Cc1ccccc1)C(N)=O [L-685,458]
zeocin concentrations at which inhibitor-treated cells are viable ([1]; cells expressing PS1 chimera treated with inhibitor (1 μM), FIG. 13): 0 to 2 mg/mL
resistance to zeocin conferred by the PS1 chimera ([1]; inhibitor at final concentration of 1 μM plus zeocin, FIG. 13): reduced the resistance to zeocin
levels of the PS1-Sh ble polypeptide (PS1-Sh ble polypeptide): reduces the levels
binding to PS1 (PS1): bind
binding to PS2 (PS2): bind

Cc1c(N)nc([C@H](CC(N)=O)NC[C@H](N)C(N)=O)nc1C(=O)N[C@H](C(=O)N[C@H](C)[C@@H](O)[C@H](C)C(=O)N[C@H](C(=O)NCCC1=N[C@@H](c2nc(C(=O)NCCCCN=C(N)N)cs2)CS1)[C@@H](C)O)[C@@H](O[C@@H]1O[C@@H](CO)[C@@H](O)[C@H](O)[C@@H]1O[C@H]1O[C@H](CO)[C@@H](O)[C@H](OC(N)=O)[C@@H]1O)c1cnc[nH]1 [zeocin]
zeocin concentrations at which cells are viable ([1]; cells expressing PS1 chimera, 2 to 3 days at 37° C., WST-1 read at 450 nm, FIG. 12): 0 to 4 mg/mL
cell viability in presence of zeocin (parental N2a cell line): significantly less viable
zeocin concentration to which cells are resistant (parental PS1ΔBle cells): 0.2 mg/mL
